Assay results published in patent publication US20070185161A1, “Bicyclic substituted indole-derivative steroid hormone nuclear receptor modulators” (priority 2004, published 2007).

molecular target: T1, human MR (Homo sapiens, UniProt P08235); experiment: Mineralocorticoid Receptor Binding Assay (Method 1); conditions: [3H]-aldosterone, racemic mixture unless otherwise indicated
T1 construct: The full length human MR gene is cloned from a human kidney or human brain cDNA library; made in house; host or cells: SF9 insect cells (baculovirus)
T1 sequence (P08235 1-984): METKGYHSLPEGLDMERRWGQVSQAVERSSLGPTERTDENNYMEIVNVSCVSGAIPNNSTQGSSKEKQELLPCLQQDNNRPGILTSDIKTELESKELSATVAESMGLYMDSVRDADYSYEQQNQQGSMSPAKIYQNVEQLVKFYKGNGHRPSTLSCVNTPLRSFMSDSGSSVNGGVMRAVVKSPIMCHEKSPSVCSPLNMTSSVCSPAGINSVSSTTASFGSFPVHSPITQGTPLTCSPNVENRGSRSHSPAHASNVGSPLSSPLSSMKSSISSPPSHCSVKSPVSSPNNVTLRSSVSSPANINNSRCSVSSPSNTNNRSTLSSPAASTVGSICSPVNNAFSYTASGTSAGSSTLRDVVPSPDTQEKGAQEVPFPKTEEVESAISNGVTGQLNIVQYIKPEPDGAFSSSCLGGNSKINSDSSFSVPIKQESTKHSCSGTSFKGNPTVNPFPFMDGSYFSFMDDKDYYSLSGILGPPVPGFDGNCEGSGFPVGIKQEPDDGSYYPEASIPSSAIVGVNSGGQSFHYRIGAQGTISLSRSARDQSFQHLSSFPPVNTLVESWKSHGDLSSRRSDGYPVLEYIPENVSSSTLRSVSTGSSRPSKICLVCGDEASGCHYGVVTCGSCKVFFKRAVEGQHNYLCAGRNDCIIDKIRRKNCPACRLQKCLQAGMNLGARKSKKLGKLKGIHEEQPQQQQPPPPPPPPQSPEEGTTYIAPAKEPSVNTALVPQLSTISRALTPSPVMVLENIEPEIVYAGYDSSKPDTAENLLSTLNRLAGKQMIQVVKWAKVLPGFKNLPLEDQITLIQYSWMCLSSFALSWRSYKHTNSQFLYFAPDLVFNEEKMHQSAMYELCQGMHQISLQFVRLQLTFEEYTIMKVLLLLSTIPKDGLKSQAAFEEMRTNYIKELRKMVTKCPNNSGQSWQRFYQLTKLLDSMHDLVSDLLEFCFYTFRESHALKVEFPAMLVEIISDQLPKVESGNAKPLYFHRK
Experimental: The full length human MR gene is cloned from a human kidney or human brain cDNA library. Briefly, using synthetic oligonucleotide primers (Eli Lilly and Company, Indianapolis) directed to nucleotides 20-54 and 3700-3666 of the human MR, polymerase chain reaction (PCR) is performed under standard conditions using a human cDNA library. The PCR reaction is performed in a final volume of 50 μl containing about 1 μl of a 50× stock solution of polymerase; about 1 μl of a 50× stock solution of dNTP; about 5 μl of an appropriate PCR buffer; about 1 μl of each primer; about 5 μl of a H. kidney or H. brain cDNA library; and about 36 μl of water. The reaction is allowed to denature for about 30 seconds at 95 degrees Celsius, anneal for about 30 seconds at 55 degrees Celsius, and extend for about 5 minutes at 72 degrees Celsius, the sequence being repeated for a total of about 35 cycles. The desired PCR product (3.68 Kb) is confirmed by gel electrophoresis and subsequently cut from the gel and stored at about −20 degrees Celsius until extraction. To extract the cDNA product from the agarose gel, the QIAEX II Gel Extraction protocol (QIAGEN, Inc.) is employed according to the manufacturer's instructions. Following extraction, the MR cDNA is cloned into an appropriate cloning vector (Zero Blunt TOPO PCR Cloning Kit (Invitrogen, Inc.) and a pAcHLT-baculovirus transfer vector (B.D./Pharminogen), then expressed in SF9 insect cells, essentially according to manufacturer's instructions. Sf9 cells are grown at a scale where gram quantity cell pellets are obtained for subsequent use in the MR binding assay. Harvested cell pellets are lysed by repeated freeze-thaw cycles (about 4) in a suitable lysis buffer then centrifuged at about 1×10^3 G (with the supernatant being saved for future assays).
MR binding assays are performed in a final total volume of about 250 μl containing about 20-25 μg of protein and 0.5 nM of [^3H]-aldosterone plus varying concentrations of test compound or vehicle. The assay binding buffer consists of 30 mM sodium molybdate, 30 mM of TRIS-HCl, 5 mM sodium phosphate, 5 mM sodium pyrophosphate, and about 10% glycerol, pH=7.5.
Briefly, assays are prepared at RT in 96-well Falcon 3072 plates, each well containing 210 μl of binding buffer, 10 μl of [^3H]-aldosterone, 10 μl of test compound/vehicle, and 20 μl of the resuspended receptor protein extract. Incubations are carried out at 4 degrees Celsius with shaking for about 16 hours. 200 μl aliquots of each incubation are filtered onto Millipore HA 0.45 micron 96-well filter plates, pre-moistened with cold 30 mM TRIS-HCl. The filter plates are suctioned dry with vacuum and immediately washed 3× with cold 30 mM TRIS-HCl. The plates are then punched out and the amount of receptor-ligand complex is determined by liquid scintillation counting using 4 ml of Ready Protein Plus™ liquid scintillation cocktail.
IC50 values (defined as the concentration of test compound required to decrease [^3H]-aldosterone binding by 50%) are then determined. Ki values for each respective test compound can then be calculated by application of the Cheng-Prusoff equation as described in Cheng et al., Relationship Between The Inhibition Constant (Ki) and The Concentration of Inhibitor Which Causes 50% Inhibition (IC50) of an Enzymatic Reaction, Biochem. Pharmacol., 22: 3099-31088; (1973).

Ki, ≤ 500 nM:
CC1(c2c[nH]c3c(NS(C)(=O)=O)cccc23)CCOc2cc(F)ccc21 (single isomer, unassigned) [Example 34A, N-[3-(7-Fluoro-4-methyl-chroman-4-yl)-1H-indol-7-yl]-methanesulfonamide]
CC1(c2c[nH]c3c(NS(C)(=O)=O)cccc23)CCOc2cc(F)ccc21 (single isomer, unassigned) [Example 34B, N-[3-(7-Fluoro-4-methyl-chroman-4-yl)-1H-indol-7-yl]-methanesulfonamide]
CCC1(c2c[nH]c3c(NS(C)(=O)=O)cccc23)CCOc2cc(F)ccc21 (single isomer, unassigned) [Example 35A, N-[3-(4-Ethyl-7-fluoro-chroman-4-yl)-1H-indol-7-yl]-methanesulfonamide]
CCC1(c2c[nH]c3c(NS(C)(=O)=O)cccc23)CCOc2cc(F)ccc21 (single isomer, unassigned) [Example 35B, N-[3-(4-Ethyl-7-fluoro-chroman-4-yl)-1H-indol-7-yl]-methanesulfonamide]
CCC1(c2c[nH]c3c(NS(C)(=O)=O)cccc23)CCOc2cc(F)cc(F)c21 (single isomer, unassigned) [Example 36A, N-[3-(4-Ethyl-5,7-difluoro-chroman-4-yl)-1H-indol-7-yl]-methanesulfonamide]
CCC1(c2c[nH]c3c(NS(C)(=O)=O)cccc23)CCOc2cc(F)cc(F)c21 (single isomer, unassigned) [Example 36B, N-[3-(4-Ethyl-5,7-difluoro-chroman-4-yl)-1H-indol-7-yl]-methanesulfonamide]
CS(=O)(=O)Nc1cccc2c(C3(C4CC4)CCc4cc(F)ccc43)c[nH]c12 (single isomer, unassigned) [Example 39A, N-[3-(1-Cyclopropyl-5-fluoro-indan-1-yl)-1H-indol-7-yl]-methanesulfonamide]
CS(=O)(=O)Nc1cccc2c(C3(C4CC4)CCc4cc(F)ccc43)c[nH]c12 (single isomer, unassigned) [Example 39B, N-[3-(1-Cyclopropyl-5-fluoro-indan-1-yl)-1H-indol-7-yl]-methanesulfonamide]
CS(=O)(=O)Nc1cccc2c(C3(CCCO)CCc4cc(F)ccc43)c[nH]c12 (single isomer, unassigned) [Example 40A, N-{3-[5-Fluoro-1-(3-hydroxy-propyl)-indan-1-yl]-1H-indol-7-yl}-methanesulfonamide]
CS(=O)(=O)Nc1cccc2c(C3(CCCO)CCc4cc(F)ccc43)c[nH]c12 (single isomer, unassigned) [Example 40B, N-{3-[5-Fluoro-1-(3-hydroxy-propyl)-indan-1-yl]-1H-indol-7-yl}-methanesulfonamide]
CCC1(c2c[nH]c3c([N+](=O)[O-])cccc23)CCc2cc(F)ccc21 (stereo not shown) [Example 2, 3-(1-Ethyl-5-fluoro-indan-1-yl)-7-nitro-1H-indole]
CCC1(c2cn(C)c3c(NS(C)(=O)=O)cccc23)CCc2cc(F)ccc21 (stereo not shown) [Example 5, N-[3-(1-Ethyl-5-fluoro-indan-1-yl)-1-methyl-1H-indol-7-yl]-methanesulfonamide]
CCC1(c2c[nH]c3c(N)cccc23)CCc2cc(F)ccc21 (stereo not shown) [Example 14, 3-(1-Ethyl-5-fluoro-indan-1-yl)-1H-indol-7-ylamine]
CCC1(c2c[nH]c3c(NC(=O)OC)cccc23)CCc2cc(F)ccc21 (stereo not shown) [Example 15, [3-(1-Ethyl-5-fluoro-indan-1-yl)-1H-indol-7-yl]-carbamic acid methyl ester]
CCC1(c2c[nH]c3c(NC(C)=O)cccc23)CCc2cc(F)ccc21 (stereo not shown) [Example 16, N-[3-(1-ethyl-5-fluoro-indan-1-yl)-1H-indol-7-yl]-acetamide]
CCC1(c2c[nH]c3c(NS(=O)(=O)N(C)C)cccc23)CCc2cc(F)ccc21 (stereo not shown) [Example 17]
CCC1(c2c[nH]c3c(NS(=O)(=O)c4ccccc4)cccc23)CCc2cc(F)ccc21 (stereo not shown) [Example 18, N-[3-(1-ethyl-5-fluoro-indan-1-yl)-1H-indol-7-yl]-benzenesulfonamide]
CCC1(c2c[nH]c3c(NS(=O)(=O)CC)cccc23)CCc2cc(F)ccc21 (stereo not shown) [Example 19, Ethanesulfonic acid [3-(1-ethyl-5-fluoro-indan-1-yl)-1H-indol-7-yl]-amide]
CC1(c2c[nH]c3c(NS(C)(=O)=O)cccc23)CCc2ccccc21 (stereo not shown) [Example 20, N-[3-(1-Methyl-indan-1-yl)-1H-indol-7-yl]-methanesulfonamide]
CC1(c2c[nH]c3c(NS(C)(=O)=O)cccc23)CCc2cc(-n3cccn3)ccc21 (stereo not shown) [Example 24, N-[3-(1-Methyl-5-pyrazol-1-yl-indan-1-yl)-1H-indol-7-yl]-methanesulfonamide]
CS(=O)(=O)Nc1cccc2c(C3CCCc4ccccc43)c[nH]c12 (stereo not shown) [Example 25, N-[3-(1,2,3,4-Tetrahydro-naphthalen-1-yl)-1H-indol-7-yl]-methanesulfonamide]
CC1(c2c[nH]c3c(NS(C)(=O)=O)cccc23)CCCc2ccccc21 (stereo not shown) [Example 26, N-[3-(1-Methyl-1,2,3,4-tetrahydro-naphthalen-1-yl)-1H-indol-7-yl]-methanesulfonamide]
CCC1(c2c[nH]c3c(NS(C)(=O)=O)cccc23)CCCc2ccccc21 (stereo not shown) [Example 27, N-[3-(1-Ethyl-1,2,3,4-tetrahydro-naphthalen-1-yl)-1H-indol-7-yl]-methanesulfonamide]
CC1(c2c[nH]c3c(NS(C)(=O)=O)cccc23)CCOc2ccccc21 (stereo not shown) [Example 32, N-[3-(4-Methyl-chroman-4-yl)-1H-indol-7-yl]-methanesulfonamide]
CC1(c2c[nH]c3c(NS(C)(=O)=O)cccc23)CCOc2ccc(F)cc21 (stereo not shown) [Example 33, N-[3-(6-Fluoro-4-methyl-chroman-4-yl)-1H-indol-7-yl]-methanesulfonamide]
